In ChEMBL document CHEMBL1141170, “Rational approach to discover multipotent anti-Alzheimer drugs” (J Med Chem, 2005) one finds Activity and IC50 data, which are given here for 3 molecules.

The species entered for test [1] is Homo sapiens. As to the kind of experiment: Percentage increase of intracellular reactive oxygen species in neuronal cells at 0.1 uM. Format: functional.
For test [2], the species on record is Homo sapiens. As to the kind of experiment: Percentage increase of intracellular reactive oxygen species in neuronal cells at 5 uM. Format: functional.
The species entered for test [3] is Homo sapiens. As to the kind of experiment: Percentage increase of intracellular reactive oxygen species in neuronal cells at 50 uM. Format: functional.
Test [4] is filed under the species Homo sapiens. As to the kind of experiment: Percentage increase of intracellular reactive oxygen species in neuronal cells at 0.5 uM. Type of test: functional.
Test [5] is filed under the species Homo sapiens. As to the kind of experiment: Percentage increase of intracellular reactive oxygen species in neuronal cells at 1 uM. Type of test: functional.
The species entered for test [6] is Homo sapiens. Briefly: Percentage increase of intracellular reactive oxygen species in neuronal cells at 10 uM. Type of test: functional.
The species named for test [7] is Homo sapiens. As to the kind of experiment: Percentage increase of intracellular reactive oxygen species in neuronal cells at 0 uM. Format: functional.
Test [8] is filed under the species Homo sapiens. As to the kind of experiment: Percentage increase of intracellular reactive oxygen species in neuronal cells at 50 uM; Cytotoxicity. Format: functional.
Test [9] is filed under the species Homo sapiens. Briefly: Percentage increase of intracellular reactive oxygen species in neuronal cells at 10 uM; Cytotoxicity. Format: functional.
Test [10] has as its target Cholinesterase (Homo sapiens, UniProt P06276).
Description: Inhibitory concentration against human recombinant butyrylcholinesterase
The target of test [11] is Acetylcholinesterase (Homo sapiens, UniProt P22303).
Acetylcholinesterase, sequence (P22303 whole entry): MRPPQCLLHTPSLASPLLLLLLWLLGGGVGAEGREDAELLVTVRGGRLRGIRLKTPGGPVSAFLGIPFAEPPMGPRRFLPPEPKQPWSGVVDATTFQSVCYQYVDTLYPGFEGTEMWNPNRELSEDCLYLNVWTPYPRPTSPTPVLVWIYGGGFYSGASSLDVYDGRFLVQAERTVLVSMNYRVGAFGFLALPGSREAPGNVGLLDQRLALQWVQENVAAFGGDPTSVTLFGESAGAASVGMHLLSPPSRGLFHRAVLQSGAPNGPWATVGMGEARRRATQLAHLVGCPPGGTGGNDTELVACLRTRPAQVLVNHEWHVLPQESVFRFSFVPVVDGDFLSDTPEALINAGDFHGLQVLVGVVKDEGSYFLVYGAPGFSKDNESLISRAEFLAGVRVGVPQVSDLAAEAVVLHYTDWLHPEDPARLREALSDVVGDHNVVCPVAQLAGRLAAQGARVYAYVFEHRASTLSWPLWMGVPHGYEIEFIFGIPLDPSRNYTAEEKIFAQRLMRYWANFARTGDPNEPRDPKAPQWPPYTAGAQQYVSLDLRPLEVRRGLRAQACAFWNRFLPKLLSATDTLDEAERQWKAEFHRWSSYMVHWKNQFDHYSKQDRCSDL
Description: Inhibitory concentration against human recombinant acetylcholinesterase

Structures are written as SMILES.

What is called IC50 is the concentration that inhibits the measured activity by half. Low values mean higher potency, high ones lower potency.

Cholinesterase, sequence (P06276 whole entry): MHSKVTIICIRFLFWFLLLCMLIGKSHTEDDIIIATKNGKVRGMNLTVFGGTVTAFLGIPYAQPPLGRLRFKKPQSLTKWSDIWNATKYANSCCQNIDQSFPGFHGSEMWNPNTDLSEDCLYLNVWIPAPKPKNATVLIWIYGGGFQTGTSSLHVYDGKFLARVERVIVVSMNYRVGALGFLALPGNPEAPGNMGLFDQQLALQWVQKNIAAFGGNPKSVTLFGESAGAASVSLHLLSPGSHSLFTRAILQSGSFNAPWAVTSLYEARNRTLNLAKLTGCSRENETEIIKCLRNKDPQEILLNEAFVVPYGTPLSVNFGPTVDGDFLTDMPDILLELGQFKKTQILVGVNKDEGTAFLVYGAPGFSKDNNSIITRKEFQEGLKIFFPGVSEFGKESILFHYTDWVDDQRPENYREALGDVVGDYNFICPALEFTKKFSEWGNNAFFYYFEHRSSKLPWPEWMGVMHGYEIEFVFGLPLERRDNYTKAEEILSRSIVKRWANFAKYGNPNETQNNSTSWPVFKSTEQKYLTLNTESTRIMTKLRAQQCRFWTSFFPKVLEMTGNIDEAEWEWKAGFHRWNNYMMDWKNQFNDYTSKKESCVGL

Consider `O=C(CCCCC1CCSS1)NCCCNc1c2c(nc3cc(Cl)ccc13)CCCC2` (racemic) [LIPOCRINE], for which the Activity in test [1] worked out at 88.75%; in [2] it was 61.67%; in [3], 30.5%; in [4] it was 95%; in [5], 77%; in test [6], 51.25%. The same molecule returned an Activity in test [7] of 86%.
With `NCCCNc1c2c(nc3cc(Cl)ccc13)CCCC2`, the Activity was 99.5% in [1]; 82.5% in [2]; “Toxic” in test [8]; 99.67% in [4]; “Toxic” in test [9]; 96.67% in test [5]. Moreover, in test [7], the Activity is 86%. The same molecule had an IC50 in test [10] of 2580 nM.
For `Nc1c2c(nc3cc(Cl)ccc13)CC(CNC(=O)CCCCC1CCSS1)CC2` (configuration not stated), the figures for the IC50 in test [11] and in test [10] were 1090 nM and 329 nM, respectively.
